Results reported in US20060247260A1, “Bis (hetero) aryl carboxamide derivatives for use as PG12 antagonists” (BAYER HEALTHCARE AG, priority 2003, published 2006).

Test system: not given
Assay: not given
Conditions: not given

Row | melting point | SMILES
1 | 196 to 200 °C | O=C(NC(Cc1ccccc1)C(=O)O)c1cc(-c2ccc(OCc3ccccc3)cc2)[nH]n1 (centres unmarked) [Example 1-1, 2-{[5-(4-Benzyloxyphenyl)-1H-pyrazole-3-carbonyl]amino}-3-phenylpropionic acid]
2 | 215 to 216 °C | O=C(NC(Cc1ccccc1)C(=O)O)c1ccc(-c2ccc(OCc3ccccc3)cc2)s1 (centres unmarked) [Example 2-1, 2-{[5-(4-Benzyloxyphenyl)thiophene-2-carbonyl]amino}-3-phenyl-propionic acid]

Row | SMILES | melting point
3 | O=C(NC(Cc1ccccc1)C(=O)[O-])c1ccc(-c2ccc(OCc3ccccc3)nc2)cc1.[Na+] (centres unmarked) [Example 6-1, Sodium 2-[4-(6-benzyloxypyridin-3-yl)benzoylamino]-3-phenylpropionate] | 240 to 242 °C

Molecular target: T1, PGI2 receptor (Homo sapiens, UniProt P43119)
T1 construct: host or cells: HEL 92.1.7 human erythroleukemia cells (whole cells)
Assay: PGI2 receptor binding/cAMP in HEL cells (in vitro activity grade)
Conditions: compounds of purity about 40 to 90%
Experimental: [Measurement of the [^3H]-Iloprost Binding to HEL Cells] (Assay 1) A human erythloleukemia cell line, HEL 92.1.7, was purchased from American Type Culture Correction and maintained in RPMI-1640 medium (Gibco BRL) supplemented with 10% fetal calf serum (FCS), 2 mM glutamine, 4.5 g/L glucose, 10 mM Hepes, 1 mM sodium pyruvate, 100 U/ml penicillin, and 100 μg/ml streptomycin in a humidified 5% CO2 atmosphere at 37° C. Cells were collected with centrifugation and washed with binding assay buffer (BAB: 50 mM Tris-HCl, 5 mM MgCl2 (pH 7.5)). Cells were suspended at the density of 6.25×10^6 cells/ml in BAB, and one million cells in 160 μl aliquot of cell suspension were put in a well of 96 well plate (Falcon). Then, 20 μl of compound solution, 100 μM of iloprost (for non-specific binding), or buffer alone (total binding), diluted with 1% DMSO in BAB was added. Finally, another 20 μl containing [^3H]-iloprost (0.02 μCi, 0.5-1 pmol) in BAB was added and incubated at room temperature for 30 min with a gentle shaking. Cell suspension was then transferred to a well of MultiScreen plate with GF/C glass filters (Millipore) to harvest cells. Cells were washed twice with 200 μl of ice-cold BAB and the plate was kept at 55° C. for 30 min to dry filters. The filter in the well was punched out to a counting tube and 2 ml of Ultima Gold XR Packard) was added. [^3H]-radio activity in the filter was measured by a liquid scintillation counter (Beckman, USA). [Iloprost-Induced cAMP Production Assay in HEL Cells] (Assay 2) HEL cells were collected with centrifugation and washed with cAMP assay buffer (CAB: Hank's balanced salt solution, 17 mM Hepes, 0.1% bovine serum albumin, 1 mM IBMX, 0.4% DMSO, and 1 mM L-ascorbic acid sodium salt (pH 7.4)). Cells were suspended at the density of 2.5×10^5 cells/ml in CAB, and twenty thousand cells in 80 μl aliquot of cell suspension were put in a well of 96 well plate (Falcon). Then, 10 μl of compound solution diluted with 1% DMSO in CAB or buffer alone was added. The plate was incubated at 37° C. for 30 min. Then, another 10 μl containing 100 nM iloprost in CAB or buffer alone was added and further incubated at 37° C. for 30 min. cAMP content in the well was measured by, a cAMP ELISA kit (Applied Biosystems, USA). The data corresponds to the compounds as yielded by solid phase synthesis and thus to levels of purity of about 40 to 90%. For practical reasons, the compounds are grouped in three classes of activity as follows: In vitro activity grade=A≦0.1 μM<B≦1 μM<C

T1 sequence (P43119 whole entry): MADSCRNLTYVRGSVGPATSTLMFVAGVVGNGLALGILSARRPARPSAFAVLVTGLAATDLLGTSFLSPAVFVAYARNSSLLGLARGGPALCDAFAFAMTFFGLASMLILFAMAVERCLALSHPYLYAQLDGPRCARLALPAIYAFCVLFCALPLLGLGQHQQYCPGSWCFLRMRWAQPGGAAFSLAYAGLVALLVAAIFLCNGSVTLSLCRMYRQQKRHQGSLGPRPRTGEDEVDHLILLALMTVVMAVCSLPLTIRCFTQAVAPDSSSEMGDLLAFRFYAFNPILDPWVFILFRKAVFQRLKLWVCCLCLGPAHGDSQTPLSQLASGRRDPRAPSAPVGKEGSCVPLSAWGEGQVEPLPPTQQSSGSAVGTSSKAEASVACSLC

Row | SMILES | In vitro activity grade
4 | Cc1ccc(C)c(COc2ccc(-c3ccc(C(=O)NC(Cc4ccccc4)C(=O)O)cc3)cc2)c1 (centres unmarked) [Example 8-26] | B (0.1 μM<B≦1 μM)
5 | COc1cc(COc2ccc(-c3ccc(C(=O)NC(Cc4ccccc4)C(=O)O)cc3)cc2)cc(OC)c1OC (centres unmarked) [Example 8-16] | C (1 μM<C)
6 | O=C(NC(Cc1ccccc1)C(=O)O)c1ccc(-c2ccc(OCc3ccc(F)cc3F)cc2)cc1 (centres unmarked) [Example 8-18] | A (A≦0.1 μM)
7 | Cc1cc(C)cc(COc2ccc(-c3ccc(C(=O)NC(Cc4ccccc4)C(=O)O)cc3)cc2)c1 (centres unmarked) [Example 8-25] | B (0.1 μM<B≦1 μM)
8 | O=C(NC(Cc1ccccc1)C(=O)O)c1cc(-c2ccc(OCc3ccccc3)cc2)[nH]n1 (centres unmarked) [Example 1-1, 2-{[5-(4-Benzyloxyphenyl)-1H-pyrazole-3-carbonyl]amino}-3-phenylpropionic acid] | A (A≦0.1 μM)
9 | O=C(NC(Cc1ccccc1)C(=O)[O-])c1ccc(-c2ccc(OCc3ccccc3)nc2)cc1.[Na+] (centres unmarked) [Example 6-1, Sodium 2-[4-(6-benzyloxypyridin-3-yl)benzoylamino]-3-phenylpropionate] | A (A≦0.1 μM)
10 | O=C(NC(Cc1ccccc1)C(=O)O)c1cc(-c2ccc(OCc3ccccc3)cc2)on1 (centres unmarked) [Example 1-2, 2-{[5-(4-Benzyloxyphenyl)isoxazole-3-carbonyl]amino}-3-phenyl-propionic acid] | A (A≦0.1 μM)
11 | O=C(NC(Cc1ccccc1)C(=O)O)c1ccc(-c2ccc(OCCN3CCCCC3)cc2)cc1 (centres unmarked) [Example 8-40] | C (1 μM<C)
12 | COc1cc(COc2ccc(-c3ccc(C(=O)NC(Cc4ccccc4)C(=O)O)cc3)cc2)cc(OC)c1 (centres unmarked) [Example 8-23] | A (A≦0.1 μM)
13 | O=C(NC(Cc1ccccc1)C(=O)O)c1ccc(-c2ccc(OCc3cccc(OC(F)(F)F)c3)cc2)cc1 (centres unmarked) [Example 8-30] | C (1 μM<C)
14 | O=C(NC(Cc1ccccc1)C(=O)O)c1ccc(-c2ccc(OCc3ccccc3)cc2)s1 (centres unmarked) [Example 2-1, 2-{[5-(4-Benzyloxyphenyl)thiophene-2-carbonyl]amino}-3-phenyl-propionic acid] | A (A≦0.1 μM)
15 | O=C(NC(Cc1ccccc1)C(=O)O)c1ccc(-c2ccc(OCc3ccc([N+](=O)[O-])cc3)cc2)cc1 (centres unmarked) [Example 8-2] | B (0.1 μM<B≦1 μM)
16 | O=C(NC(Cc1ccccc1)C(=O)O)c1ccc(-c2ccc(OCc3ccc(Cl)cc3Cl)cc2)cc1 (centres unmarked) [Example 8-9] | C (1 μM<C)
17 | O=C(NC(Cc1ccccc1)C(=O)O)c1ccc(-c2ccc(OCc3cccc(C(F)(F)F)c3)cc2)cc1 (centres unmarked) [Example 8-20] | B (0.1 μM<B≦1 μM)
18 | O=C(NC(Cc1ccccc1)C(=O)O)c1ccc(-c2ccc(OCc3ccc(F)c(F)c3)cc2)cc1 (centres unmarked) [Example 8-6] | A (A≦0.1 μM)
19 | O=C(NC(Cc1ccccc1)C(=O)O)c1ccc(-c2ccc(OCc3c(Cl)cccc3Cl)cc2)cc1 (centres unmarked) [Example 8-7] | A (A≦0.1 μM)
20 | O=C(NC(Cc1ccccc1)C(=O)O)c1ccc(-c2ccc(OCc3cccc(Cl)c3Cl)cc2)cc1 (centres unmarked) [Example 8-11] | A (A≦0.1 μM)
21 | O=C(NC(Cc1ccccc1)C(=O)O)c1ccc(-c2ccc(OCc3ccccc3)cc2)nc1 (centres unmarked) [Example 4-1, 2-{[6-(4-benzyloxy-phenyl)-pyridine-3-carbonyl]-amino}-3-phenyl-propionic acid] | A (A≦0.1 μM)
22 | O=C(NC(Cc1ccccc1)C(=O)O)c1ccc(-c2ccc(OCc3cc(Cl)cc(Cl)c3)cc2)cc1 (centres unmarked) [Example 8-8] | C (1 μM<C)
23 | O=C(NC(Cc1ccccc1)C(=O)O)c1ccc(-c2ccc(OCc3ccc(OC(F)(F)F)cc3)cc2)cc1 (centres unmarked) [Example 8-31] | C (1 μM<C)
24 | O=C(NC(Cc1ccccc1)C(=O)O)c1ccc(-c2ccc(OCc3ccc(Cl)c(Cl)c3)cc2)cc1 (centres unmarked) [Example 8-10] | B (0.1 μM<B≦1 μM)
25 | O=C(NC(Cc1ccccc1)C(=O)O)c1ccc(-c2cnc(OCc3ccccc3)nc2)cc1 (centres unmarked) [Example 5-1, 2-[4-(2-Benzyloxypyrimidin-5-yl)benzoylamino]-3-phenylpropionic acid] | A (A≦0.1 μM)
26 | Cc1ccc(COc2ccc(-c3ccc(C(=O)NC(Cc4ccccc4)C(=O)O)cc3)cc2)c(C)c1 (centres unmarked) [Example 8-27] | B (0.1 μM<B≦1 μM)
27 | O=C(NC(Cc1ccccc1)C(=O)O)c1ccc(-c2ccc(OCc3ccc(C(F)(F)F)cc3)cc2)cc1 (centres unmarked) [Example 8-21] | C (1 μM<C)
28 | O=C(NC(Cc1ccccc1)C(=O)O)c1ccc(-c2ccc(OCC3CCCCC3)cc2)cc1 (centres unmarked) [Example 8-33] | B (0.1 μM<B≦1 μM)
29 | O=C(NC(Cc1ccccc1)C(=O)O)c1ccc(-c2ccc(OCc3cccc([N+](=O)[O-])c3)cc2)cc1 (centres unmarked) [Example 8-28] | A (A≦0.1 μM)

Second part, the molecule after the results:

Row | In vitro activity grade | SMILES
30 | C (1 μM<C) | O=C(NC(Cc1ccccc1)C(=O)O)c1ccc(-c2ccc(OCc3ccccc3OC(F)(F)F)cc2)cc1 (centres unmarked) [Example 8-29]
31 | A (A≦0.1 μM) | Cc1cccc(COc2ccc(-c3ccc(C(=O)NC(Cc4ccccc4)C(=O)O)cc3)cc2)c1 (centres unmarked) [Example 8-1, 2-{[4′-(3-Methylbenzyloxy)biphenyl-4-carbonyl]amino}-3-phenylpropionic acid]
32 | A (A≦0.1 μM) | COc1cccc(COc2ccc(-c3ccc(C(=O)NC(Cc4ccccc4)C(=O)O)cc3)cc2)c1 (centres unmarked) [Example 8-14]
33 | A (A≦0.1 μM) | O=C(NC(Cc1ccccc1)C(=O)O)c1ccc(-c2ccc(OCc3ccc(F)cc3)cc2)cc1 (centres unmarked) [Example 8-5]
34 | B (0.1 μM<B≦1 μM) | COc1ccc(COc2ccc(-c3ccc(C(=O)NC(Cc4ccccc4)C(=O)O)cc3)cc2)cc1 (centres unmarked) [Example 8-15]
35 | B (0.1 μM<B≦1 μM) | CCCCOc1ccc(-c2ccc(C(=O)NC(Cc3ccccc3)C(=O)O)cc2)cc1 (centres unmarked) [Example 8-38]
36 | A (A≦0.1 μM) | O=C(NC(Cc1ccccc1)C(=O)O)c1ccc(-c2ccc(OCCc3ccccc3)cc2)cc1 (centres unmarked) [Example 8-35]
37 | B (0.1 μM<B≦1 μM) | O=C(NC(Cc1ccccc1)C(=O)O)c1ccc(-c2ccc(OCCCc3ccccc3)cc2)cc1 (centres unmarked) [Example 8-37]
38 | A (A≦0.1 μM) | O=C(NC(Cc1ccccc1)C(=O)O)c1ccc(-c2ccc(OCc3ccccc3Cl)cc2)cc1 (centres unmarked) [Example 8-17]
39 | A (A≦0.1 μM) | O=C(NC(Cc1ccccc1)C(=O)O)c1ccc(-c2ccc(OCc3cccc(Cl)c3)cc2)cc1 (centres unmarked) [Example 8-22]
40 | B (0.1 μM<B≦1 μM) | Cc1ccc(COc2ccc(-c3ccc(C(=O)NC(Cc4ccccc4)C(=O)O)cc3)cc2)cc1 (centres unmarked) [Example 8-19]
41 | B (0.1 μM<B≦1 μM) | O=C(NC(Cc1ccccc1)C(=O)O)c1ccc(-c2ccc(OCc3ccc(Cl)cc3)cc2)cc1 (centres unmarked) [Example 8-32]
42 | A (A≦0.1 μM) | Nc1cccc(COc2ccc(-c3ccc(C(=O)NC(Cc4ccccc4)C(=O)O)cc3)cc2)c1 (centres unmarked) [Example 8-39]
43 | B (0.1 μM<B≦1 μM) | CC(Oc1ccc(-c2ccc(C(=O)NC(Cc3ccccc3)C(=O)O)cc2)cc1)c1ccccc1 (centres unmarked) [Example 8-36]
44 | B (0.1 μM<B≦1 μM) | COc1ccccc1COc1ccc(-c2ccc(C(=O)NC(Cc3ccccc3)C(=O)O)cc2)cc1 (centres unmarked) [Example 8-13]
45 | A (A≦0.1 μM) | O=C(NC(Cc1ccccc1)C(=O)O)c1ccc(-c2ccc(OCc3ccccc3F)cc2)cc1 (centres unmarked) [Example 8-3]
46 | A (A≦0.1 μM) | O=C(NC(Cc1ccccc1)C(=O)O)c1ccc(-c2ccc(OCc3ccccc3)cc2)cc1 (centres unmarked) [Example 3-1, 2-[(4′-Benzyloxy-biphenyl-4-carbonyl)-amino]-3-phenyl-propionic acid]
47 | A (A≦0.1 μM) | Cc1ccccc1COc1ccc(-c2ccc(C(=O)NC(Cc3ccccc3)C(=O)O)cc2)cc1 (centres unmarked) [Example 8-24]
48 | B (0.1 μM<B≦1 μM) | O=C(NC(Cc1ccccc1)C(=O)O)c1ccc(-c2ccc(OCCCn3cccc3)cc2)cc1 (centres unmarked) [Example 8-34]
49 | A (A≦0.1 μM) | O=C(NC(Cc1ccccc1)C(=O)O)c1ccc(-c2ccc(OCc3cccc(F)c3)cc2)cc1 (centres unmarked) [Example 8-4]
50 | B (0.1 μM<B≦1 μM) | O=C(NC(Cc1ccccc1)C(=O)O)c1ccc(-c2ccc(OCc3c(F)cccc3F)cc2)cc1 (centres unmarked) [Example 8-12]
